Experiment [1] concerns adhesion of intestinal epithelial cells (HT-29) and monocytic cells (U937) induced by TNF-α. Description: Inhibition of TNF-α-induced adhesion of monocytes and intestinal epithelial cells. In kind it is cell-based, human. The conditions noted are these: for inhibition at 1 µM: Homo sapiens, read-out: Inhibitory activity (%). Here is the method: HT-29 human colon cancer-derived epithelial cells and U937 human-derived monocytes were cultured in RPMI 1640 medium containing 10% FBS and 1% penicillin/streptomycin (PS) in a 37° C., 5% CO2 incubator. When the cells grew more than 80% of the bottom area of the culture flask, they were passaged at a ratio of 1:3 and used in this experiment. HT-29 cells were cultured in a 24-well plate at the density of 2×10^5 cells/cm^2, and the test drug was pretreated in a medium containing 1% FBS and 1% PS for 1 hour. Thereafter, 10 μg/mL of BCECF-AM was treated thereto and reacted at 37° C. for 30 minutes. U937 cells loaded with BCECF and TNF-α (10 ng/mL) were reacted with HT-29 cells previously treated with the test drug at 37° C. for 3 hours. Upon completion of the reaction, the medium was removed, and the culture flask was washed twice with PBS to remove non-adherent U937 cells. In the next step, the cells were lysed by treating with 0.1% Triton X-100 (0.1 M Tris) and reacted at room temperature for 30 minutes. Then, fluorescence was measured and quantified using a fluostar optima microplate reader (BMG Labtechnologies, Germany) (Carvalho et al., 1996; Thapa et al., 2008).

The test system of experiment [2] is adhesion of intestinal epithelial cells (HT-29) and monocytic cells (U937) induced by IL-6. Description: Inhibition of IL-6-induced adhesion of monocytes and intestinal epithelial cells. In kind it is cell-based, human. The conditions noted are these: for inhibition at 1 µM: Homo sapiens, 3 h, test drug 1 μM, IL-6 10 ng/mL, HT-29/U937, read-out: inhibitory activity (%). The method, then:
The inhibitory activity test for intestinal epithelial cell-monocyte adhesion by IL-6 was performed using the same method as in the case of TNF-α. HT-29 cells were cultured in a 24-well plate at the density of 2×10^5 cells/cm^2, and the test drug was pretreated in a medium containing 1% FBS and 1% PS for 1 hour. Thereafter, 10 μg/mL of BCECF-AM was treated thereto and reacted at 37° C. for 30 minutes. U937 cells loaded with BCECF and IL-6 (10 ng/mL) were reacted with HT-29 cells previously treated with the test drug at 37° C. for 3 hours. Upon completion of the reaction, the medium was removed, and the culture flask was washed twice with PBS to remove non-adherent U937 cells. In the next step, the cells were lysed by treating with 0.1% Triton X-100 (0.1 M Tris) and reacted at room temperature for 30 minutes. Then, fluorescence was measured and quantified using a fluostar optima microplate reader (BMG Labtechnologies, Germany).

[3] abbreviates: test drug 1 μM, TNF-α 10 ng/mL, HT-29/U937.

`Nc1ccc(O)c(C(=O)O)c1` [Compound 5-ASA, 5-ASA, reference compound]: the IC50 – broadly, the concentration at which inhibition is half-maximal – in experiment [1] (inhibition of adhesion by TNF-α) is 18.1 mM; in experiment [2] (inhibition of adhesion by IL-6), 25.1 mM. Moreover, the “Inhibitory activity (%)” value in experiment [1] (setting [3]) came out at 3.8%.
As to `Cc1nc(NC(=O)c2cc3ccccc3[nH]2)c(C)c(C)c1O` [Compound X-01, N-(5-hydroxy-3,4,6-trimethylpyridin-2-yl)-1H-indole-2-carboxamide], the inhibition at 1 µM in experiment [1] (setting [3]) came to 43.2%; in experiment [2], 34%.
Regarding `Cc1nc(NC(=O)c2cc3ccccc3n2C)c(C)c(C)c1O` [Compound X-02, N-(5-hydroxy-3,4,6-trimethylpyridin-2-yl)-1-methyl-1H-indole-2-carboxamide], the inhibition at 1 µM in experiment [1] (setting [3]) came out at 29.1%; in experiment [2], 21.1%.
Taken in the same sequence, the figures for `Cc1nc(NC(=O)c2cc3cccc(Br)c3[nH]2)c(C)c(C)c1O` [Compound X-03, 7-bromo-N-(5-hydroxy-3,4,6-trimethylpyridin-2-yl)-1H-indole-2-carboxamide] were 14.5% and 5%.
Turning to `Cc1nc(NC(=O)c2cc3ccc(Cl)cc3[nH]2)c(C)c(C)c1O` [Compound X-04, 6-chloro-N-(5-hydroxy-3,4,6-trimethylpyridin-2-yl)-1H-indole-2-carboxamide], the inhibition at 1 µM in experiment [1] (setting [3]) was determined as 30.3%; in experiment [2], 25.1%.
Taken in the same sequence, the figures for `Cc1nc(NC(=O)c2cc3ccc(Br)cc3[nH]2)c(C)c(C)c1O` [Compound X-05, 6-bromo-N-(5-hydroxy-3,4,6-trimethylpyridin-2-yl)-1H-indole-2-carboxamide] were 7.5% and 3.4%.
Consider `Cc1nc(NC(=O)c2cc3cc(F)ccc3[nH]2)c(C)c(C)c1O` [Compound X-06, 5-fluoro-N-(5-hydroxy-3,4,6-trimethylpyridin-2-yl)-1H-indole-2-carboxamide], for which the inhibition at 1 µM turned out to be 49.9% in experiment [1] (setting [3]) and 42.9% in experiment [2].
The matching figures for `Cc1nc(NC(=O)c2cc3cc(Cl)ccc3[nH]2)c(C)c(C)c1O` [Compound X-08, 5-chloro-N-(5-hydroxy-3,4,6-trimethylpyridin-2-yl)-1H-indole-2-carboxamide]: 31% and 21.3%.
`Cc1nc(NC(=O)c2cc3cc(C(F)(F)F)ccc3[nH]2)c(C)c(C)c1O` [Compound X-10, N-(5-hydroxy-3,4,6-trimethylpyridin-2-yl)-5-(trifluoromethyl)-1H-indole-2-carboxamide]: the inhibition at 1 µM in experiment [1] (setting [3]) is not below 50%; in experiment [2] it was 47.9%.
As to `Cc1nc(NC(=O)c2cc3cc(OC(F)(F)F)ccc3[nH]2)c(C)c(C)c1O` [Compound X-11, N-(5-hydroxy-3,4,6-trimethylpyridin-2-yl)-5-(trifluoromethoxy)-1H-indole-2-carboxamide], the inhibition at 1 µM in experiment [1] (setting [3]) stood at 32.8%; in experiment [2] it was 24.2%.
Regarding `COc1ccc2cc(C(=O)Nc3nc(C)c(O)c(C)c3C)[nH]c2c1` [Compound X-12, N-(5-hydroxy-3,4,6-trimethylpyridin-2-yl)-6-methoxy-1H-indole-2-carboxamide], the inhibition at 1 µM in experiment [1] (setting [3]) was not below 50%; in experiment [2], 46%.
In the case of `COc1ccc2[nH]c(C(=O)Nc3nc(C)c(O)c(C)c3C)cc2c1` [Compound X-13, N-(5-hydroxy-3,4,6-trimethylpyridin-2-yl)-5-methoxy-1H-indole-2-carboxamide], the inhibition at 1 µM stood at 36.7% in experiment [1] (setting [3]) and 23.4% in experiment [2].
In the case of `COc1cc2cc(C(=O)Nc3nc(C)c(O)c(C)c3C)[nH]c2cc1OC` [Compound X-14, N-(5-hydroxy-3,4,6-trimethylpyridin-2-yl)-5,6-dimethoxy-1H-indole-2-carboxamide], the figures for the inhibition at 1 µM in experiment [1] (setting [3]) and in experiment [2] were 36.9% and 29.5%, respectively.
The matching figures for `Cc1nc(NC(=O)c2cc3ccccc3o2)c(C)c(C)c1O` [Compound X-15, N-(5-hydroxy-3,4,6-trimethylpyridin-2-yl)benzofuran-2-carboxamide]: 4.8% and 42.4%.

Values taken from patent US12398117B2, “Heteroarylamidopyridinol derivative and pharmaceutical composition comprising same as active ingredient for prevention or treatment of autoimmune disease” (INNOVO THERAPEUTICS INC., priority 2019, dated 2025).
